Tests used:
Type in all cases: cell-based, Balb/c mice
[1] = test system: GA-specific polarized Th2 cells; test: GA-Th2 assay: IL-4 in culture media by ELISA; details: 0 to 50 μg/ml antigen, 24 hours, sandwich ELISA
Procedure: Populations of Th2 cells and APC cells were reanimated in culture media (RPMI/5% FBS/20 ng/mL IL-2), added dropwise. Cells were pelleted at 400-800G before being resuspended in fresh culture media for use in the assay. […] The final volume for the assay was 0.2 mL. The set up for the Th2 assay is illustrated in FIG. 7.
Conditioned culture media was collected 24 hours post stimulation for analysis by multiplex assay and ELISA.
The response curve was fit to the four parameter logistic fit equation using nonlinear regression and the EC50 (μg/ml) was calculated. One-way ANOVA followed by Tukey's multiple comparison test (significance level, p<0.05) was used for statistical testing of the dataset for each plate.
IL-4 levels were determined by sandwich ELISA.

[2] = test system: GA-specific polarized Th2 cells; test: Th2 assay: cytokine secretion by GA-specific polarized Th2 cells with APCs and antigen, 9-plex MSD multiplex
Procedure: Populations of Th2 cells and APC cells were reanimated in culture media (RPMI/5% FBS/20 ng/mL IL-2), added dropwise. Cells were pelleted at 400-800G before being resuspended in fresh culture media for use in the assay. For the assay, 150,000 APC cells were combined with a concentration of GA using serial dilution of the GA. The resulting concentration curve provided a range from 0-50 μg/mL GA. APC cells were incubated with the GA for about 10 minutes before the Th2 cells were added. The final volume for the assay was 0.2 mL. The set up for the Th2 assay is illustrated in FIG. 7.
More specifically, GA-specific polarized Th2 cells prepared according to Example 1 were cultured in vitro with varying concentrations of GA (reference standard commercial preparation, Copaxone® or glatiramoid (Sigma-Aldrich (COP-1)) in the presence of syngeneic, mitomycin-C-treated, naïve splenic APCs. Cells were cultured in 96-well plates in a final volume of 200 μl per well, with 50 μl of […] splenic APCs (150×10^3/50 μl) freshly isolated from naïve Balb/c mice, 50 μl of GA-specific polarized Th2 cells (50×10^3/50 μl) and 100 μl of culture media (complete RPMI-10 supplemented with 10% FBS) containing RLD or COP-1 at increasing concentrations of GA from 0 to 50 μg/ml. Conditioned culture media was collected 24 hours post stimulation for analysis by multiplex assay and ELISA. Th1 ([…], IL-2, IL-12p70, TNF-α, KC and IFN-γ) and Th2 (IL-4, IL-5, and IL-10) cytokine levels (pg/ml) were measured using the 9-plex mouse Th1/Th2 cytokine kit from Meso Scale Discovery (MSD) (Gaithersburg, Md.).

[3] = test system: CD4+ T cells; test: Cytokine levels in culture media of CD4+ T cells from GA-immunized mice after restimulation with antigen and APCs (multiplex); details: for levels of Th2 cytokines induced: after a second round of stimulation, 20 μg antigen
Procedure: Balb/c mice (Jackson Labs) were immunized with 250 μg/mL of GA (reference lot drug (RLD) or ovalbumin (OVA), each in saline, emulsified in complete Freund's adjuvant (CFA) on day 1. On day 11, the draining lymph nodes were harvested, single cell suspensions were made, and CD4+ T cells were enriched by negative selection immunomagnetic bead purification.
For ex vivo challenge, CD4+ T cells (1×10^6/ml) were re-stimulated with 20 μg/mL of the same antigen used to immunize the mice (RLD, GA, or OVA) in the presence of freshly isolated or frozen naïve mitomycin C-treated splenic APCs (1×10^7/ml) for 3-4 days, at which time, the culture media was replaced with fresh culture media supplemented with 20 ng/ml of IL-2. Cells were split and reseeded at 800,000 cells/mL in media containing 4 parts fresh media (RPMI/5% FBS/20 ng/mL IL-2) and 1 part recycled media from the previous culture. This cycle of changing the media and splitting the cells was repeated for 6 cycles. Cells were frozen and stored as a cell bank.
After cell propagation, the CD4+ T cells were restimulated once again with freshly isolated naïve mitomycin C-treated splenic APCs (1×10^7/ml) for 4 days and 20 μg of the respective antigen. Culture supernatants were collected 72 hours after the start of each restimulation for analysis.
Th1 (IL-2 and IL-12p40), Th2 (IL-4, IL-5 IL-6, IL-10, and IL-13) and Th17 (IL-17) cytokine levels (ng/ml) were measured using multiplex technology (Endogen Searchlight, Rockford, Ill.). A one-way ANOVA followed by Newman-Keuls multiple comparison test (significance level, p<0.05) for each individual measured cytokine was used for statistical analysis.

Molecule: PLP (139-151): encephalitogenic neuroantigen peptide, Peptides International (CHCLGKWLGHPDK; UniProt P60202 139-151, looked up, fragment)
- IL-4 in the culture media (cross-reactivity) [1]: no IL-4 was detected

Molecule: Poly(Ala, Glu, Lys, Tyr) 6:2:5:1 hydrobromide [COP-1]
- Th2 cytokines (IL-4, IL-5, IL-10) secreted ([2]; 0 to 50 μg/ml antigen, 24 hours): dose-dependent increase
- levels of IL-2 and TNF-α ([2]; 0 to 50 μg/ml, 24 hours): quantifiable and exhibited dose dependency
- response versus RLD in secretion of the Th2 cytokines ([2]; 0 to 50 μg/ml, 24 hours): readily distinguishable from RLD
- levels of secreted Th1 cytokines (IL-1β, KC, IFN-γ) ([2]; 0 to 50 μg/ml, 24 hours, not dose dependent): very low (below limits of quantitation)
- IL-12 secretion ([2]; 0 to 50 μg/ml, 24 hours, quantitated): not dose dependent
- doses at which discriminated from RLD in levels of IL-2 and TNF-α secreted ([2]; 24 hours): > 30 µg/mL
- levels of Th2 cytokines (IL-4, IL-5, IL-10, IL-13), IL-2, IL-6 and TNF-α compared to restimulation with GA ([2]; restimulated in the presence of APCs): significantly decreased levels

Molecule: L-glutamic acid polymer with L-alanine, L-lysine and L-tyrosine, acetate (salt) [GA]
- levels of Th2 cytokines induced ([3]; supernatant 72 hours): high levels
- levels of Th2 cytokines (IL-5, IL-6, IL-10, IL-13) induced ([3]; after the first round of stimulation, 20 μg/mL antigen, supernatant 72 hours): low but detectable levels
- Th17 cytokine IL-17 and Th1 cytokine IL-12p40 ([3]; with the second round of stimulation): selectively down-regulated

Molecule: MOG (35-55): encephalitogenic neuroantigen peptide, Peptides International (MEVGWYRSPFSRVVHLYRNGK; UniProt Q61885 63-83, looked up, fragment)
- IL-4 in the culture media (cross-reactivity) [1]: no IL-4 was detected

Molecule: MBP (87-89): myelin basic protein peptide, Peptides International Catalog No. PMB-3973-PI (NRPHLIRLFSRDA; UniProt P04370 87-99, looked up, fragment)
- IL-4 in the culture media (cross-reactivity) [1]: no IL-4 was detected

B1: murine MBP: murine myelin basic protein, EMD Biosciences Catalog No. 124027 (protein, UniProt P04370 1-250, looked up)
Myelin basic protein: MGNHSGKRELSAEKASKDGEIHRGEAGKKRSVGKLSQTASEDSDVFGEADAIQNNGTSAEDTAVTDSKHTADPKNNWQGAHPADPGNRPHLIRLFSRDAPGREDNTFKDRPSESDELQTIQEDPTAASGGLDVMASQKRPSQRSKYLATASTMDHARHGFLPRHRDTGILDSIGRFFSGDRGAPKRGSGKDSHTRTTHYGSLPQKSQHGRTQDENPVVHFFKNIVTPRTPPPSQGKGGRDSRSGSPMARR
- IL-4 in the culture media (cross-reactivity) [1]: no IL-4 was detected

B2: ovalbumin: ovalbumin control antigen (protein, UniProt P01012 2-386, looked up)
Ovalbumin: GSIGAASMEFCFDVFKELKVHHANENIFYCPIAIMSALAMVYLGAKDSTRTQINKVVRFDKLPGFGDSIEAQCGTSVNVHSSLRDILNQITKPNDVYSFSLASRLYAEERYPILPEYLQCVKELYRGGLEPINFQTAADQARELINSWVESQTNGIIRNVLQPSSVDSQTAMVLVNAIVFKGLWEKAFKDEDTQAMPFRVTEQESKPVQMMYQIGLFRVASMASEKMKILELPFASGTMSMLVLLPDEVSGLEQLESIINFEKLTEWTSSNVMEERKIKVYLPRMKMEEKYNLTSVLMAMGITDVFSSSANLSGISSAESLKISQAVHAAHAEINEAGREVVGSAEAGVDAASVSEEFRADHPFLFCIKHIATNAVLFFGRCVSP
- levels of Th2 cytokines induced ([3]; supernatant 72 hours): did not show a corresponding increase
